Among the data in BindingDB's records for patent US10343992 (Missions Therapeutics, 2019) are IC50 values, retold here.

The target of the test is T1, Ubiquitin carboxyl-terminal hydrolase 30 (Homo sapiens, UniProt Q70CQ3).
T1 sequence (Q70CQ3 whole entry): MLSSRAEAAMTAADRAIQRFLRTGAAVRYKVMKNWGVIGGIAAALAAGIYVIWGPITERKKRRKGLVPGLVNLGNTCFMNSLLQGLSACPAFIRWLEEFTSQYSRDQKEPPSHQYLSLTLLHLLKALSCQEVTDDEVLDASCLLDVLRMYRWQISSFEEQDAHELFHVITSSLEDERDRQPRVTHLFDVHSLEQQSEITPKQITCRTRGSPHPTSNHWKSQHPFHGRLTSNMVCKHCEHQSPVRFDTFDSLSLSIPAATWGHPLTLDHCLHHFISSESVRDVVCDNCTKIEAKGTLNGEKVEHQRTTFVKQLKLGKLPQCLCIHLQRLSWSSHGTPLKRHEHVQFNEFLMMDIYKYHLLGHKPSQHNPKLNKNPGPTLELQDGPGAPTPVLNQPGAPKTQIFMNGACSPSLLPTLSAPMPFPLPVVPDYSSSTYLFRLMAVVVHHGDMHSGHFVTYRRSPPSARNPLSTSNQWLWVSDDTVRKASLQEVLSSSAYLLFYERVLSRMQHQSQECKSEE
The test is described as follows: Biochemical Fluorescence Intensity Assay. The protocol:
A typical 8-point dilution series would be 100, 30, 10, 3, 1, 0.3, 0.1, 0.03 μM final. […] USP30 was diluted in reaction buffer (40 mM Tris, pH 7.5, 0.005% Tween 20, 0.5 mg/ml BSA, 5 mM beta-mercaptoethanol) to the equivalent of 0.001 μl/well and 10 μl of diluted USP30 was added to the compound. Enzyme and compound were incubated for 30 min at room temp. […] Reactions were read immediately after addition of substrate and following a 2 h incubation at room temperature.

Consider `Cn1ccc(-c2ccc(NC(=O)N3CC[C@@H]4CN(C#N)C[C@@H]43)c(F)c2)n1` [US10343992, Example 245], for which the half-maximal inhibitory concentration (IC50) entry is “in the range around 550 nM”.

For the molecule `CN(C(=O)CC1=NC2C=C(c3cnn(C)c3)N=CC2N1)C1CCN(C#N)C1` (configuration not stated) [US10343992, Example 263], the concentration for half-maximal inhibition (IC50) entry is “in the range around 550 nM”.
